Consider 39 compounds from ChEMBL document CHEMBL1149512, “3-Aryl-4-hydroxyquinolin-2(1H)-one derivatives as type I fatty acid synthase inhibitors” (Bioorg Med Chem Lett, 2006).

For one assay, the target named is Fatty acid synthase (Rattus norvegicus, UniProt P12785). The assay can be described thus: Inhibition of rat FAS.
Fatty acid synthase (Rattus norvegicus, UniProt P12785), sequence (P12785 whole entry): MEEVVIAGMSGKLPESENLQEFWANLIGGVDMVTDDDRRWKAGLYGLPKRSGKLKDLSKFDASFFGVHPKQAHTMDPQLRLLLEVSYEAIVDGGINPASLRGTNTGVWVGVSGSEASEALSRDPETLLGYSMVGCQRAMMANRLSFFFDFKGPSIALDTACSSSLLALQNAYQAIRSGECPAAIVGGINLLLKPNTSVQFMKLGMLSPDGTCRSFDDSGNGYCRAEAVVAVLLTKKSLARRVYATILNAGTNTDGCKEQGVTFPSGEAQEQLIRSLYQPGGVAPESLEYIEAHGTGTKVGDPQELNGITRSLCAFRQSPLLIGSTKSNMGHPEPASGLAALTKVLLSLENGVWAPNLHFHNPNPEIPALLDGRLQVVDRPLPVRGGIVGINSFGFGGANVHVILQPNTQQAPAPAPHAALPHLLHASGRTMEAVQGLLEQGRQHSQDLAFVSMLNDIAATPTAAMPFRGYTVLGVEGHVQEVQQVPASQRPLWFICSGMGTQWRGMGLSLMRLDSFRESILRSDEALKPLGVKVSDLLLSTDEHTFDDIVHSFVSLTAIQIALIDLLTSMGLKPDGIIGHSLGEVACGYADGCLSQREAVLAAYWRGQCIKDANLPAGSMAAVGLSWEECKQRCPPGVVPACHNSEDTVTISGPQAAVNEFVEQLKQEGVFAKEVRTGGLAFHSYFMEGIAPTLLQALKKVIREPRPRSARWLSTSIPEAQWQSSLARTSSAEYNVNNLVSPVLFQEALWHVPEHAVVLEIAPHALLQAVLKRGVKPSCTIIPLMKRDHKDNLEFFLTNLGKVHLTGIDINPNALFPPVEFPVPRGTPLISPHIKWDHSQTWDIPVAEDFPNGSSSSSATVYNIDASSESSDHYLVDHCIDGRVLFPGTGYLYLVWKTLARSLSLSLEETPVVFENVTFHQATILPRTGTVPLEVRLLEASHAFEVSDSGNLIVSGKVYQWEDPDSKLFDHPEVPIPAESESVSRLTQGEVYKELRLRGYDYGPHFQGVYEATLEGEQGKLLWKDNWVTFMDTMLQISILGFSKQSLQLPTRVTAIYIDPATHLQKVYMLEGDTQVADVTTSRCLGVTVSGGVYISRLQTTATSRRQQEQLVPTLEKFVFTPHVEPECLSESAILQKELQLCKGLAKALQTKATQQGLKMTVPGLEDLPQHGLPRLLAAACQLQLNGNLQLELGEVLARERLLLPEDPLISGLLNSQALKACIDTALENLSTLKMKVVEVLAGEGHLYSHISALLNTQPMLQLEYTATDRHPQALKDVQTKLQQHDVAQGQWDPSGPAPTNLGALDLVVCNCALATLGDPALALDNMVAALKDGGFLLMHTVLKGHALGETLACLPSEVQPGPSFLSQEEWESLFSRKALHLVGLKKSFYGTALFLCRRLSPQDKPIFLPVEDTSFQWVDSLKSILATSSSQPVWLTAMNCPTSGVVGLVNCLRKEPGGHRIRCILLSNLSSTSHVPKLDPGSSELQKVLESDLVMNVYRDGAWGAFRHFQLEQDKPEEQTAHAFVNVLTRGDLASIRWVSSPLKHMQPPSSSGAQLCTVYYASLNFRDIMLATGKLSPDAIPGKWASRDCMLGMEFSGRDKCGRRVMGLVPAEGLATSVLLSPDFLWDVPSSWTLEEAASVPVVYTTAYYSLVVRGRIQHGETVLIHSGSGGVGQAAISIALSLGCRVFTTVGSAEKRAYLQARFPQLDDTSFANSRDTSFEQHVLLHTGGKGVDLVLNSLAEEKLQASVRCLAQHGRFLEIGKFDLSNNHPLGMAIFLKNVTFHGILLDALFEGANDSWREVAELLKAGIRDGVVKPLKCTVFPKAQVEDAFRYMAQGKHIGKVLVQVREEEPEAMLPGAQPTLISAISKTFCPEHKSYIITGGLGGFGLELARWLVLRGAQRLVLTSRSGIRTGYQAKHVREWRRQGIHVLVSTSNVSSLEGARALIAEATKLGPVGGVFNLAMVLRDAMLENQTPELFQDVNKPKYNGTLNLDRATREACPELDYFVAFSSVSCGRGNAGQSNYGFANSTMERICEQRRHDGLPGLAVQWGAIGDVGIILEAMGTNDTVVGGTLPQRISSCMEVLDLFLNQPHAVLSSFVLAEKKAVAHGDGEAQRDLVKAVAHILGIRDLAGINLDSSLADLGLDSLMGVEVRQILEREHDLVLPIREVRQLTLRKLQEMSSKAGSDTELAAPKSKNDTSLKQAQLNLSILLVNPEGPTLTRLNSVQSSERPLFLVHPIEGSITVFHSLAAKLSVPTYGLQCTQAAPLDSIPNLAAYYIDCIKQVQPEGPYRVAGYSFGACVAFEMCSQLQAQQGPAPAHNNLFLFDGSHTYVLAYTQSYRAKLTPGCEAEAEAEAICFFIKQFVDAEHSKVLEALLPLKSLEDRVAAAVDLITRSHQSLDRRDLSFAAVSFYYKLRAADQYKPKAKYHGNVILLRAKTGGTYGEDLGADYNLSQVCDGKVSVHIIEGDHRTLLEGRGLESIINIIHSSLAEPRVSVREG
`CS(=O)(=O)c1ccc2[nH]c(=O)c(-c3ccccc3)c(O)c2c1`: the half-inhibitory concentration (IC50) was > 15 µM.

For the compound `O=c1[nH]c2ccc(S(=O)(=O)C(F)(F)F)cc2c(O)c1-c1ccccc1`, the IC50 is > 15 µM. Same read-out and setting: in the case of `O=C(O)c1ccc2[nH]c(=O)c(-c3ccccc3)c(O)c2c1` it was > 15 µM; in that of `O=c1[nH]c2ccc(C(F)(F)F)cc2c(O)c1-c1ccccc1`, > 15 µM; in that of `O=c1[nH]c2cc(Cl)c([N+](=O)[O-])cc2c(O)c1-c1ccc(F)cc1F`, 0.173 µM. `O=c1[nH]c2cc(F)c([N+](=O)[O-])cc2c(O)c1-c1ccccc1` showed an IC50 of 0.05 µM. As to `O=c1[nH]c2cc(Cl)c([N+](=O)[O-])cc2c(O)c1-c1nnn[nH]1`, the half-maximal inhibitory concentration (IC50) is 2.6 µM.

In turn, `O=c1[nH]c2cc(Cl)c([N+](=O)[O-])cc2c(O)c1-c1ccc2ccccc2c1` displayed an IC50 of 6 µM. Still for that read-out and setting: in the case of `Cc1cc(-c2c(O)c3cc([N+](=O)[O-])c(Cl)cc3[nH]c2=O)on1` it was 3.4 µM; in that of `O=c1[nH]c2cc(Cl)c([N+](=O)[O-])cc2c(O)c1-c1cc(Cl)cc(Cl)c1`, 0.134 µM; in that of `O=c1[nH]c2cc(Cl)c([N+](=O)[O-])cc2c(O)c1-c1cc(F)cc(F)c1`, 0.172 µM. Turning to `O=c1[nH]c2ccccc2c(O)c1-c1ccccc1`, the IC50 was > 15 µM. Still for that read-out and setting: in the case of `O=c1[nH]c2c([N+](=O)[O-])cccc2c(O)c1-c1ccccc1` it was 3 µM; in that of `O=c1cc(O)c2cc([N+](=O)[O-])ccc2[nH]1`, > 15 µM.

In the case of `O=c1[nH]c2cc(Cl)c([N+](=O)[O-])cc2c(O)c1-c1cccs1`, the 50% inhibitory concentration (IC50) is 0.7 µM. For the compound `O=c1[nH]c2cc(Cl)c([N+](=O)[O-])cc2c(O)c1-c1ccc(OCc2ccccc2)cc1`, the 50% inhibitory concentration (IC50) stood at 0.086 µM. In turn, `O=c1[nH]c2cc(Cl)c([N+](=O)[O-])cc2c(O)c1-c1ccc(-c2ccccc2)cc1` returned a concentration for half-maximal inhibition (IC50) of 0.122 µM. On to `O=c1[nH]c2cc(Cl)c([N+](=O)[O-])cc2c(O)c1-c1ccccc1`, for which it took 0.073 µM to reach half-maximal inhibition (IC50).

The compound `O=c1[nH]c2ccc([N+](=O)[O-])cc2c(O)c1-c1ccccc1` yielded an IC50 of 0.55 µM. For the compound `O=c1[nH]c2cc(Cl)c([N+](=O)[O-])cc2c(O)c1-c1ccc(Cl)cc1Cl`, it took 0.443 µM to reach half-maximal inhibition (IC50).

Another assay deals with Fatty acid synthase (Homo sapiens, UniProt P49327). Briefly: Inhibition of human FAS.
Fatty acid synthase (Homo sapiens, UniProt P49327), sequence (P49327 whole entry): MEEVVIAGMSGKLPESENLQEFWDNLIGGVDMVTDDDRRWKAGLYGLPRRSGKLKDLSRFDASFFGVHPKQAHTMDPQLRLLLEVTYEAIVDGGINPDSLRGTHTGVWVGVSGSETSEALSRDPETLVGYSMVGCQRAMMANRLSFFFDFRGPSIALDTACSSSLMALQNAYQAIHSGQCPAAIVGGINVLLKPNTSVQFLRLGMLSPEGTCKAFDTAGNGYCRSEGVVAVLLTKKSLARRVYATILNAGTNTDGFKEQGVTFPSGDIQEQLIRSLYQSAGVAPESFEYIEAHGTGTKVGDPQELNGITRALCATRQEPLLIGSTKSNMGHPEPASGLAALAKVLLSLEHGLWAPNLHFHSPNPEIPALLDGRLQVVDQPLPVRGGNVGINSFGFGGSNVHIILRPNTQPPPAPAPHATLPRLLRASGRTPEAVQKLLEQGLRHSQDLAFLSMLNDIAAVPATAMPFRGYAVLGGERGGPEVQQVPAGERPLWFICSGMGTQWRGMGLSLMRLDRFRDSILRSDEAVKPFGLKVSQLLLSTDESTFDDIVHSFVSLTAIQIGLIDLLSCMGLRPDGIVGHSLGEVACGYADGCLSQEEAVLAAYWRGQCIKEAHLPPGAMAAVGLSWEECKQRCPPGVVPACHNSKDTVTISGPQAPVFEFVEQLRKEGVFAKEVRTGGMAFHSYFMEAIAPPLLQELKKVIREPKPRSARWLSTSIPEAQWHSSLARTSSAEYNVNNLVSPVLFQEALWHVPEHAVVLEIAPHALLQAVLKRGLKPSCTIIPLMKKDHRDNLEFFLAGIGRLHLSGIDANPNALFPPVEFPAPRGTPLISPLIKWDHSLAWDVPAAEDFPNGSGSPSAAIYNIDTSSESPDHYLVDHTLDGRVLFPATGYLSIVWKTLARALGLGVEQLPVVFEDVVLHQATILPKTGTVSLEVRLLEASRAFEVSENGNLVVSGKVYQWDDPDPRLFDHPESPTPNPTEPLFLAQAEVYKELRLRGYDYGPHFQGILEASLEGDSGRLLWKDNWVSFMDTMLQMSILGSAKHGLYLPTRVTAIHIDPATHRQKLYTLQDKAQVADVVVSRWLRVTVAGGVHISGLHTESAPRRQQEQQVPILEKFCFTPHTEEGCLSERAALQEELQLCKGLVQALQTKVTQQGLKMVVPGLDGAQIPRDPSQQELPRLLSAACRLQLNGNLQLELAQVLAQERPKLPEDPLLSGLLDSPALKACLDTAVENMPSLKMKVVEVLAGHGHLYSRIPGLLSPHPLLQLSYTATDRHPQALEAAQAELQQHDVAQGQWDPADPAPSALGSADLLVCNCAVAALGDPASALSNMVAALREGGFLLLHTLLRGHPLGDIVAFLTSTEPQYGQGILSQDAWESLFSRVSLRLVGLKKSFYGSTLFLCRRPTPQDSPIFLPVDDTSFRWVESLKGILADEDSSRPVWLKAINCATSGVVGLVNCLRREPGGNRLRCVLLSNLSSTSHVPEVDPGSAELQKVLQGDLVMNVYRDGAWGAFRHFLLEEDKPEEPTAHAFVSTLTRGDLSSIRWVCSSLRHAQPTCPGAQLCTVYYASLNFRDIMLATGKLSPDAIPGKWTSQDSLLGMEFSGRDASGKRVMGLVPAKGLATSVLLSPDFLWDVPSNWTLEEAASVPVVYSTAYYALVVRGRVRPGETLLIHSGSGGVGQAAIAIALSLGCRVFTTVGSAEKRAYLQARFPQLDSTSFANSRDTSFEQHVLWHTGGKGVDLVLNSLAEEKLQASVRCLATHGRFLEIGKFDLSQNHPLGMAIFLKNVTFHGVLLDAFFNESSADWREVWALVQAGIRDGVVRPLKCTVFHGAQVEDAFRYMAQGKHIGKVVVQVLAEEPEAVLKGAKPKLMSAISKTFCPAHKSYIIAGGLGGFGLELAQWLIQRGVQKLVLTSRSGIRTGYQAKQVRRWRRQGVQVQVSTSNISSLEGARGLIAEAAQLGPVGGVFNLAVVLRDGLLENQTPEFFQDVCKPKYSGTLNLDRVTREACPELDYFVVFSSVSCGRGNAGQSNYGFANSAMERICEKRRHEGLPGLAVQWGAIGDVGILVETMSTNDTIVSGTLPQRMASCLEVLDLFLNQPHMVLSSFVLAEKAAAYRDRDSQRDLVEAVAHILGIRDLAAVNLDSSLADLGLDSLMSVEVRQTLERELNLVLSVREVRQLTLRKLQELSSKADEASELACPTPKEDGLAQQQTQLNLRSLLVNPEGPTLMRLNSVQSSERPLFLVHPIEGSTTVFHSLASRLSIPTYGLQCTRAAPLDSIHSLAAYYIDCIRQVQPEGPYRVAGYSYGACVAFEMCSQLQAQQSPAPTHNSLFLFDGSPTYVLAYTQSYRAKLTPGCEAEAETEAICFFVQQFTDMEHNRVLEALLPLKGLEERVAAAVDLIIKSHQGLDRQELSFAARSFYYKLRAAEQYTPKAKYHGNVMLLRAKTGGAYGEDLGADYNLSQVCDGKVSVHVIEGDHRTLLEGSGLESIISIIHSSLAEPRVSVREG
For the compound `CS(=O)(=O)c1ccc2[nH]c(=O)c(-c3ccccc3)c(O)c2c1`, the IC50 was > 15 µM. Consider `O=c1[nH]c2ccc(S(=O)(=O)C(F)(F)F)cc2c(O)c1-c1ccccc1`, for which the IC50 is > 15 µM. On the same count and under the same terms, with `N#Cc1cc(Cl)c2[nH]c(=O)c(-c3ccccc3)c(O)c2c1` the figure was 0.402 µM; with `O=c1[nH]c2ccc(C(F)(F)F)cc2c(O)c1-c1ccccc1`, > 15 µM. Same read-out and setting: in the case of `COc1ccc(CNc2c(-c3ccccc3)c(=O)[nH]c3cc(Cl)c(C#N)cc23)cc1` it was > 15 µM; in that of `N#Cc1cc2c(C#N)c(-c3ccccc3)c(=O)[nH]c2cc1Cl`, > 15 µM. Still for that read-out and setting: in the case of `N#Cc1ccc2[nH]c(=O)c(-c3ccccc3)c(O)c2c1` it was 1.29 µM; in that of `N#Cc1cc2c(O)c(-c3ccccc3)c(=O)[nH]c2cc1Cl`, 0.136 µM; in that of `N#Cc1cc2c(O)c(-c3cccc(-c4ccc(F)c(F)c4)c3)c(=O)[nH]c2cc1Cl`, 0.068 µM. With `COc1ccccc1-c1cccc(-c2c(O)c3cc(C#N)c(Cl)cc3[nH]c2=O)c1`, the concentration for half-maximal inhibition (IC50) was 0.019 µM.

`Cn1cc(-c2cccc(-c3c(O)c4cc(C#N)c(Cl)cc4[nH]c3=O)c2)cn1` displayed an IC50 of 0.734 µM. `N#Cc1cc2c(O)c(-c3cccc(-c4ccc(F)cc4)c3)c(=O)[nH]c2cc1Cl` came in with an IC50 of 0.054 µM.

In the case of `N#Cc1cc2c(NCc3ccccc3)c(-c3ccccc3)c(=O)[nH]c2cc1Cl`, the IC50 was > 15 µM. As for `N#Cc1cc2c(Cl)c(-c3ccccc3)c(=O)[nH]c2cc1Cl`, the half-maximal inhibitory concentration (IC50) was > 15 µM. Turning to `CS(=O)(=O)c1cccc(-c2c(O)c3cc(C#N)c(Cl)cc3[nH]c2=O)c1`, half-maximal inhibition (IC50) was put at 4.16 µM. As for `N#Cc1cc2c(O)c(-c3cccc(-c4cc(F)cc(F)c4)c3)c(=O)[nH]c2cc1Cl`, the concentration for half-maximal inhibition (IC50) turned out to be 0.728 µM.

As to `N#Cc1cc2c(O)c(-c3cccc(-c4ccccc4)c3)c(=O)[nH]c2cc1Cl`, the IC50 came out at 0.052 µM. In turn, `N#Cc1cc2c(O)c(-c3cccc(-c4cccnc4)c3)c(=O)[nH]c2cc1Cl` returned an IC50 of 0.194 µM.

`N#Cc1cc2c(O)c(-c3cccc(-c4csc5ccccc45)c3)c(=O)[nH]c2cc1Cl` displayed a half-maximal inhibitory concentration (IC50) of 0.101 µM. On to `O=c1[nH]c2cc(Cl)c([N+](=O)[O-])cc2c(O)c1-c1ccccc1`, for which the half-inhibitory concentration (IC50) was determined as 0.207 µM. `N#Cc1cc2c(O)c(-c3cccc(-c4ccc5ccccc5c4)c3)c(=O)[nH]c2cc1Cl`: the IC50 turned out to be 0.127 µM.

For the compound `N#Cc1cc2c(N)c(-c3ccccc3)c(O)nc2cc1Cl`, the IC50 was > 15 µM.

With `O=c1[nH]c2ccc([N+](=O)[O-])cc2c(O)c1-c1ccccc1`, the midpoint of inhibition, the IC50, lay at 1.4 µM. Consider `N#Cc1cc2c(Br)c(-c3ccccc3)c(O)nc2cc1Cl`, for which the half-inhibitory concentration (IC50) was > 15 µM.

Broadly, the IC50 is the midpoint of a concentration-inhibition curve. Lower therefore signals higher potency.
